The values below come from publication PMC5485984, “Sugar-Binding Profiles of Chitin-Binding Lectins from the Hevein Family: A Comprehensive Study” (International Journal of Molecular Sciences, 2017).

Structures are written as SMILES.

The assay concerns the target T1, DSA (Datura stramonium agglutinin) (Datura stramonium, UniProt A0A089ZWN7).
T1 construct: gene dsa-b; four hevein domains and extensin-like domain
T1 sequence (A0A089ZWN7 24-279): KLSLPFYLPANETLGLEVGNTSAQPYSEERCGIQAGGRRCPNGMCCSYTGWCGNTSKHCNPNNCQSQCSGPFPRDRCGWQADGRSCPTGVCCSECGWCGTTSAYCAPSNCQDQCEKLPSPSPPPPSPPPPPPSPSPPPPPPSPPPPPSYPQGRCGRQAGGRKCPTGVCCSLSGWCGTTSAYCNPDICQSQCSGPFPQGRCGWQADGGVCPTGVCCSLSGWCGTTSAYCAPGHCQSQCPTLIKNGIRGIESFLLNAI
Details: Frontal affinity chromatography, pyridylaminated oligosaccharides on Sepharose-immobilized lectin; Kd = Bt/(V-V0). The conditions noted are these: binder. On the procedure: For systematic comparison of sugar-binding properties of the six chitin-binding lectins, FAC was carried out with a previously established procedure. Briefly, to determine the Kd values of each of the six chitin-binding lectins for 124 PA-oligosaccharides, each of the lectins was immobilized on activated Sepharose at several concentrations: one for concentration-dependent analysis to determine the effective ligand content Bt (expressed in nmol) of a standard column, from which Kd values for a panel of PA-oligosaccharides were determined according to a simplified basic equation of FAC, Kd = Bt/(V − V0). The other(s) are supplementary to cover a wide range of possible Kd values, which is in direct relation to the observed value of V − V0 (for more detail, see Materials and Methods). […] It is often useful to discuss lectin-oligosaccharide interactions in terms of an affinity constant, Ka (1/Kd), instead of Kd. […] This was applied in the cases of DSA (6.0 and 1.5 mg/mL), UDA (6.0, 3.0, 1.0, and 0.3 mg/mL), WGA (7.0, 2.0, and 0.5 mg/mL), and LEL (6.0 and 0.5 mg/mL).

In the case of `OC[C@@H](O)[C@@H](O[C@@H]1O[C@H](CO)[C@H](O)[C@H](O)[C@H]1O)[C@H](O)[C@@H](O)CNc1ccccn1` [compound 701, 701], binding was characterised by a dissociation constant (Kd) of 31 µM.

In the case of `CC(=O)N[C@@H](CNc1ccccn1)[C@@H](O)[C@H](O[C@@H]1O[C@H](CO)[C@H](O)[C@H](O)[C@H]1O)[C@H](O)CO` [compound 901, 901], the Kd came to 87 µM.

A word on the Kd: it is the free concentration of one partner at which half of the binding sites on the other are occupied at equilibrium, for simple one-to-one binding.
